Source: PubChem BioAssay (NCI)
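Five concentrations, 48 hours, 96-well plates. GI50 is the concentration that inhibits growth by half. At the TGI there is no net growth.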 Where a SMILES comes first, the peptide text is derived from it. The star is where a group is joined. Boc = CC(C)(C)OC(=O)*; OSu = O=C1CCC(=O)N1O*

Tests used:
Assay in all cases: growth of human tumour cells (NCI), 48 h
K-562 leukemia = system: K-562 leukemia
SNB-19 CNS = system: SNB-19 CNS
TK-10 renal = system: TK-10 renal
M14 melanoma = system: M14 melanoma
EKVX NSCLC = system: EKVX NSCLC
UO-31 renal = system: UO-31 renal
HCT-15 colon = system: HCT-15 colon
U251 CNS = system: U251 CNS
SK-OV-3 ovarian = system: SK-OV-3 ovarian
HCT-116 colon = system: HCT-116 colon

SMILES	TGI (K-562 leukemia) [µM]	TGI (SNB-19 CNS) [µM]	TGI (TK-10 renal) [µM]	TGI (M14 melanoma) [µM]	TGI (EKVX NSCLC) [µM]	TGI (UO-31 renal) [µM]	TGI (HCT-15 colon) [µM]	TGI (U251 CNS) [µM]	TGI (SK-OV-3 ovarian) [µM]	TGI (HCT-116 colon) [µM]	GI50 (K-562 leukemia) [µM]	GI50 (SNB-19 CNS) [µM]	GI50 (TK-10 renal) [µM]	GI50 (M14 melanoma) [µM]	GI50 (EKVX NSCLC) [µM]	GI50 (UO-31 renal) [µM]	GI50 (HCT-15 colon) [µM]	GI50 (U251 CNS) [µM]	GI50 (HCT-116 colon) [µM]
N/C(=N\S(=O)(=O)c1ccc(S(=O)(=O)c2ccccc2)s1)Nc1ccc(Cl)cc1	88.2	> 100	51.1	37.3	40.4	40	35.1	27.8	> 100	32.9	–	–	–	–	–	–	–	–	–
CC(NC(=O)C(NC(=O)OC(C)(C)C)C(C)C)C(=O)NCC(=O)ON1C(=O)CCC1=O (stereo not drawn) (Boc-Val-Ala-Gly-OSu; configuration not given here)	> 100	> 100	> 100	> 100	> 100	> 100	> 100	> 100	> 100	> 100	–	–	–	–	–	–	–	–	–
C[C@H](CCC(=O)NCCS(=O)(=O)O)[C@H]1CC[C@H]2[C@@H]3CC[C@@H]4C[C@H](O)CC[C@]4(C)[C@H]3CC[C@]12C	> 100	> 100	> 100	> 100	> 100	> 100	> 100	> 100	> 100	> 100	–	–	–	–	–	–	–	–	–
O=C(c1ccccc1)N1CCN(C(=S)N(C(=O)c2ccccc2)c2ccccc2)C1=S	> 100	26.3	16.6	9.51	19.5	6.43	7.76	22.6	30.2	12.6	–	–	–	–	–	–	–	–	–
Cc1c(Cl)c2ccccc2n1S(=O)(=O)c1ccccc1	> 100	> 100	> 100	> 100	–	85.6	> 100	> 100	–	> 100	–	–	–	–	–	–	–	–	–
Oc1ccc(-c2nc(-c3cccnc3)c(-c3ccc(Cl)cc3)[nH]2)cc1O	> 100	27.1	26.7	26.4	50.2	26.8	22.2	26.4	25.5	26.7	–	–	–	–	–	–	–	–	–
Nn1c(COc2cccc(OCc3n[nH]c(=S)n3N)c2)n[nH]c1=S	> 100	> 100	> 100	> 100	> 100	> 100	> 100	> 100	> 100	> 100	–	–	–	–	–	–	–	–	–
COC(=O)NCCc1[nH]nc2c1C(=O)C=C(N1CCOCC1)C2=O	> 100	> 100	> 100	> 100	> 100	> 100	> 100	> 100	> 100	> 100	–	–	–	–	–	–	–	–	–
O=C(c1ccc(Cl)cc1)c1ccc(OCCCOc2ccc(C(=O)c3ccc(Cl)cc3)cc2)cc1	> 100	> 100	> 100	> 100	> 100	–	> 100	> 100	> 100	> 100	–	–	–	–	–	–	–	–	–
CCSc1sc(=Nc2ccc(N=c3sc(C)c(SC)s3)cc2)sc1-c1ccc(C)cc1	> 100	> 100	> 100	> 100	> 100	> 100	> 100	> 100	> 100	> 100	–	–	–	–	–	–	–	–	–
Nc1ncnc2c1nnn2C1C=CC(COS(N)(=O)=O)C1 (centres undefined)	> 100	33.3	36.4	25	> 100	49	> 100	57.7	> 100	36.3	–	–	–	–	–	–	–	–	–
CC(=O)N=C1N(/C=C2\C(=O)Oc3ccccc3C2=O)C(=O)/C(=C/c2ccc(OC(C)=O)cc2)N1C	> 100	–	–	> 100	> 100	–	> 100	> 100	> 100	> 100	–	–	–	–	–	–	–	–	–
O=C(/C=C/c1ccc(O)cc1)c1ccc2c(c1)OCO2	81.5	36.3	–	51.9	> 100	38.8	83.8	36.2	82.6	25.4	–	–	–	–	–	–	–	–	–
N#CC1=C(N)n2c(s/c(=C\c3ccc(Cl)cc3)c2=O)=C(c2nc3ccccc3[nH]2)C1c1ccc(Cl)cc1 (centres undefined)	4.94	> 100	2.62	11.5	3.52	> 100	4.2	2.89	–	3.61	–	–	–	–	–	–	–	–	–
CCC12CCCN(Cc3ccccc3)C1c1c([nH]c3ccccc13)C(C(=O)OC)C2 (centres undefined)	> 10	> 10	> 10	> 10	–	–	> 10	> 10	> 10	> 10	–	–	–	–	–	–	–	–	–
O=C(Nc1cccc(-n2ccc3c(NC(=O)c4ccccc4)nccc32)c1)Nc1cc(C(F)(F)F)cc(C(F)(F)F)c1	> 50	> 50	32.5	2.56	> 50	> 50	33.2	7.68	–	6.31	1.68	2.32	1.83	1.11	2.63	2.4	1.07	1.63	1.69
O=C1CCC2(CC1CC(Sc1ccccc1)Sc1ccccc1)OCCO2 (centres undefined)	> 100	> 100	> 100	> 100	> 100	> 100	> 100	> 100	> 100	–	–	–	–	–	–	–	–	–	–
CN1CCCC2(CCCc3ccccc32)C1 (centres undefined)	> 100	–	> 100	> 100	> 100	> 100	> 100	> 100	> 100	> 100	–	–	–	–	–	–	–	–	–
COC(=O)C1Cc2c(OC)ccc(OC)c2CC(C(=O)OC)C1=O (centres undefined)	> 100	> 100	–	> 100	> 100	> 100	> 100	> 100	> 100	> 100	–	–	–	–	–	–	–	–	–
CC1(C)N=C(C(N)=O)c2ncn(N)c2N1	> 100	> 100	> 100	> 100	> 100	–	> 100	> 100	> 100	> 100	–	–	–	–	–	–	–	–	–
